Results as given in patent US6153624A, “Pyrrolidine and piperidine derivatives and treatment of neurodegenerative disorders” (Hoffman-LaRoche Inc., priority 1998, dated 2000).

target: T1, N-methyl-D-aspartate (NMDA) receptor containing the NR2B subunit (Rattus norvegicus, UniProt P35439+Q00960); test: 3H-Ro 25-6981 binding (displacement) to rat brain membranes; parameters: species or system rat (male Fullinsdorf albino); conditions: 3H-Ro 25-6981 5 nM, 2 hours at 4° C., pH 7.4, rat whole brain minus cerebellum and medulla oblongata
T1 construct: Membranes were prepared by homogenization of the whole brain minus cerebellum and medulla oblongata; from tissue; host or cells: rat whole brain minus cerebellum and medulla oblongata, membranes
T1 sequence (Q00960 27-1482, other chains not shown): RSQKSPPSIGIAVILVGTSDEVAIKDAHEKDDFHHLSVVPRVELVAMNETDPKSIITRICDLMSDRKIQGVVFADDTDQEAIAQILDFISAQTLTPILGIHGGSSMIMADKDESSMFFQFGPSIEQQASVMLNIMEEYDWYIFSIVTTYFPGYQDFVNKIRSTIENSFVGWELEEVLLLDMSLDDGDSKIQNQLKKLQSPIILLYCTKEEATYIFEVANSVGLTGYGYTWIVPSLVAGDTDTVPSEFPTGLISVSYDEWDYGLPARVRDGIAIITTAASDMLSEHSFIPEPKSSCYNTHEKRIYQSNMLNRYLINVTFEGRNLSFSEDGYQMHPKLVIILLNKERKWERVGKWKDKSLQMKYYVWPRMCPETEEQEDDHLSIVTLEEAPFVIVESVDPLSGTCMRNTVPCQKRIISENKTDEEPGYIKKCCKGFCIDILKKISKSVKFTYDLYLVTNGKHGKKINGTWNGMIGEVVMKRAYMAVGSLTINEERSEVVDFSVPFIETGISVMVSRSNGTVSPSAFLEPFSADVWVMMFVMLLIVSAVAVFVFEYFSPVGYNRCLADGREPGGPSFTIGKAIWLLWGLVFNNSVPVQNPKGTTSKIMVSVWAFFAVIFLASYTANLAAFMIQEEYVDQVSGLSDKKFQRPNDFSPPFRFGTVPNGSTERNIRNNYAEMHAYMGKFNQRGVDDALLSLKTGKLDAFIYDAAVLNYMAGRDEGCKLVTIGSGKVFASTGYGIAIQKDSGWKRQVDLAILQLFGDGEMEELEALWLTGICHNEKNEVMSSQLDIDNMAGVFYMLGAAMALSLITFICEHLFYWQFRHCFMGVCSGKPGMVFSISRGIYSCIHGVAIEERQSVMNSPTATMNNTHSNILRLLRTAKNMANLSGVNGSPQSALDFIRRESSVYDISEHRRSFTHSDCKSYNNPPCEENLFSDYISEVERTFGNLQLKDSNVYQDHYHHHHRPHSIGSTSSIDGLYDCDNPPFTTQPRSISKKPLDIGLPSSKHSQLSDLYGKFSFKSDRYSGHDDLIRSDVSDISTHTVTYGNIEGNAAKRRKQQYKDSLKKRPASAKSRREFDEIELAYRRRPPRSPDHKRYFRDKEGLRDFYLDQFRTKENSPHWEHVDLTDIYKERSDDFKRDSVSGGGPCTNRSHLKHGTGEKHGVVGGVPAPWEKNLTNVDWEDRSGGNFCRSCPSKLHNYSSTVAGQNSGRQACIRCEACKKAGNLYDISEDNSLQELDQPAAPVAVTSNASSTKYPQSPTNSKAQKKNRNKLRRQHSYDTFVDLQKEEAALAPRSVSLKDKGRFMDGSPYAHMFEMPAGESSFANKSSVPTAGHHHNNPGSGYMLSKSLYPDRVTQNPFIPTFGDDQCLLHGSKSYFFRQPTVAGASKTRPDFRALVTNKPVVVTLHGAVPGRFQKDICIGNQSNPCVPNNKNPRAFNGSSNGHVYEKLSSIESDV
Text: In the following test RO 25-6981 ([R-(R*,S*)]-a-(4-Hydroxy-phenyl)-b-methyl-4-(phenyl-methyl)-1-piperidine propanol)has been used as a high and selective blocker of N-methyl-D-aspartate (NMDA) receptor containing the NR2B subjunit. The interaction of RO 25-6981 with NMDA receptors is characterized by the described test in vitro.
3H-Ro 25-6981 binding (Ro 25-6981 is [R-(R*,S*)]-a-(4-Hydroxy-phenyl)-b-methyl-4-(phenyl-methyl)-1-piperidine propanol)
Male Fullinsdorf albino rats weighing between 150-200 g were used. Membranes were prepared by homogenization of the whole brain minus cerebellum and medulla oblongata with a Polytron (10.000 rpm, 30 seconds), in 25 volumes of a cold Tris-HCl 50 mM, EDTA 10 mM, pH 7.1 buffer. The homogenate was centrifuged at 48.000 g for 10 minutes at 4° C. The pellet was resuspended using the Polytron in the same volume of buffer and the homogenate was incubated at 37° C. for 10 minutes. After centrifugation the pellet was homogenized in the same buffer and frozen at -80° C. for at least 16 hours but not more than 10 days. For the binding assay the homogenate was thawed at 37° C., centrifuged and the pellet was washed three times as above in a Tris-HCl 5 mM, pH 7.4 cold buffer. The final pellet was resuspended in the same buffer and used at a final concentration of 200 μg of protein/ml.
3H-Ro 25-6981 binding experiments were performed using a Tris-HCl 50 mM, pH 7.4 buffer. For displacement experiments 5 nM of 3H-Ro 25-6981 were used and non specific binding was measured using 10 μm of tetrahydroisoquinoline and usually it accounts for 10% of the total. The incubation time was 2 hours at 4° C. and the assay was stopped by filtration on Whatmann GF/B glass fiber filters (Unifilter-96, Packard, Zurich, Switzerland). The filters were washed 5 times with cold buffer. The radioactivity on the filter was counted on a Packard Top-count microplate scintillation counter after addition of […] of microscint 40 (Canberra Packard S. A., Zurich, Switzerland).
The effects of compounds were measured using a minimum of 8 concentrations and repeated at least once. The pooled normalized values were analyzed using a non-linear regression calculation program which provide IC50 with their relative upper and lower 95% confidence limits (RS1, BBN, USA).

Compound	IC50 [nM]
Oc1ccc([C@H]2OCCN3[C@@H](CCc4ccccc4)CC[C@H]23)cc1 (racemic) [Example 35, (1RS,6SR,8aRS)-4-(6-phenethyl-hexahydro-pyrrolo[2,1-c][1,4]oxazin-1-yl)-phenol]	90
COc1ccc(CCC2CCC(C(=O)c3ccc(O)cc3)N2)cc1 (racemic) [Example 7, Mixture of (2RS,5RS)-- and (2RS,5SR)-(4-hydroxy-phenyl)-[5-[2-(4-methoxy-phenyl)-ethyl]-pyrrolidin-2-yl]-methanone]	70
Oc1ccc([C@@H](O)[C@@H]2CC[C@@H](CCc3ccccc3)N2)cc1O (racemic) [Example 5, 4-[(RS)-hydroxy-[(2SR,5RS)-5-phenethyl-pyrrolidin-2-yl]-methyl]-benzene-1,2-diol]	40
COc1ccc(CC[C@H]2CC[C@@H]([C@H](O)c3ccc(O)c(F)c3)N2)cc1 (racemic) [Example 2, 2-fluoro-4-[(RS)-hydroxy-[(2SR,5SR)-5-[2-(4-methoxy-phenyl)-ethyl]-pyrrolidin-2-yl]-methyl]-phenol]	30
COc1ccc(CC[C@@H]2CC[C@H](Cc3ccc(O)cc3)N2)cc1 (racemic) [Example 4, (2RS,5RS)-4-[5-[2-(4-methoxy-phenyl)-ethyl]-pyrrolidin-2-ylmethyl]-phenol]	40
Oc1ccc([C@H]2OCN3[C@H](CCc4ccccc4)CC[C@@H]23)cc1 (racemic) [Example 37, (1RS ,5RS,7aSR)-4-(5-phenethyl-tetrahydro-pyrrolo[1,2-c]oxazol-1-yl)-phenol]	50
Oc1ccc([C@@H](O)[C@@H]2CC[C@@H](CCc3ccccc3)N2)cc1 (racemic) [Example 1, 4-[(RS)-hydroxy-[(2SR,5RS)-5-phenethyl-pyrrolidin-2-yl]-methyl]-phenol]	20
COc1ccc(CC[C@@H]2CCC[C@H](Cc3ccc(O)cc3)N2)cc1 (racemic) [Example 6, (2RS,6SR)-4-[6-[2-(4-methoxy-phenyl)-ethyl]-piperidin-2-ylmethyl]-phenol]	45
COc1ccc(CC[C@@H]2CCC[C@H](C(O)c3ccc(O)cc3)N2)cc1 (stereo partly shown) [Example 3]	30

system: NMDA receptors; test: not given; conditions: Journ. of Pharmacology, Vol. 283, No.8, 1285-1297; cited from earlier work

Compound	demonstration of NMDA receptor block (in words)
C[C@@H](CN1CCC(Cc2ccccc2)CC1)[C@@H](O)c1ccc(O)cc1 [RO 25-6981, [R-(R*,S*)]-a-(4-Hydroxy-phenyl)-b-methyl-4-(phenyl-methyl)-1-piperidine propanol]	highly selective, activity-dependent blocker of NMDA receptors
